We go through 2 compounds from patent US20240050563A1, “Combination Treatment of Cancer” (Ares Trading S.A., priority 2020, published 2024).

The subject of the assay is MC38 colon carcinoma cells. Nature of the assay: Syngeneic MC38 tumor model (tumor volume monitoring). The class given is in vivo, C57/BL6 mice. The note with it: MCT4 inhibitor 30 mg/kg p.o. qd, bintrafusp alfa 492 μg/animal i.v. day 0, 3, 6; for % T/C: Day 20, versus Group 1 control (vehicle + mutant non-binding anti-PD-L1 antibody); for reduction of tumor growth: MC38 tumor-bearing C57/BL6 mice, study end day 20. The protocol:
MC38 colon carcinoma cells were obtained from Scripps Research Institute. Cells were tested and verified to be free of adventitious viruses and mycoplasma.
MC38 cells were cultured in DMEM containing 4.5 g/L D-glucose, 2 mM glutamine, and 110 mg/L sodium pyruvate and supplemented with 10% FBS. All cells were maintained at 37° C. and 5% CO2 in aseptic conditions. Cells were passaged upon reaching 50-85% confluence for a total of 2 to 15 passages prior to in vivo implantation. Cells were harvested by trypsinization with TrypLE Express and viable cell counts were determined using a Countess or […] cell counter and trypan blue exclusion staining.
Female C57/BL6 mice were obtained from Charles River Laboratories. They were inoculated (s.c. in the right dorsal flank) with 1×10^6 MC38 cells in 0.1 mL sterile PBS. Treatment was initiated when tumors reached an average volume of approximately 50-80 mm^3 (Day 0).
Test groups of the MC38 tumor-bearing mice (8 animals in each group) were treated with both vehicle (20% Kleptose (HPB) in 50 mM Phosphate pH 7.4 buffer) and a mutant, non-binding anti-PD-L1 antibody (Group 1, control), the MCT4 inhibitor described as Compound 367 in WO 2020/127960 (5-{2-[5-chloro-2-(5-ethoxyquinoline-8-sulfonamido)phenyl]ethynyl}-4-methoxypyridine-2-carboxylic acid; commercially available from, e.g., Selleck Chemicals) (Group 2), bintrafusp alfa (Group 3), or a combination of Compound 367 and bintrafusp alfa (Group 4). In Group 1 (Control Group) the vehicle was administered at 10 ml/kg animal weight, p.o. once daily and Mut PD-L1 i.v. at day 0, 3, and 6 (400 μg/animal). In Groups 2 and 4 the MCT4 inhibitor was administered at 30 mg/kg animal weight (p.o. administration, once per day (qd)). In Groups 3 and 4 bintrafusp alfa was administered 492 μg/animal at day 0, 3, and 6 (i.v. administration). At day 20 the study was terminated. Efficacy of the treatment was evaluated by monitoring tumor volume over the course of the study.

With `CCOc1ccc(S(=O)(=O)Nc2ccc(Cl)cc2C#Cc2cnc(C(=O)O)cc2OC)c2ncccc12` [MCT4 inhibitor, 5-{2-[5-chloro-2-(5-ethoxyquinoline-8-sulfonamido)phenyl]ethynyl}-4-methoxypyridine-2-carboxylic acid], the “% T/C” value was 79.1% and the “reduction of tumor growth” value came to 20%.

In the case of “bintrafusp alfa: anti-PD-L1:TGFβRII fusion protein, CAS 1918149-01-5; light chain SEQ ID NO: 7, heavy chain SEQ ID NO: 8”, the “% T/C” value turned out to be 79.7% and the “reduction of tumor growth” value is 20%.
